# In ChEMBL document CHEMBL1150512, “A new class of angiotensin II receptor antagonists with a novel acidic bioisostere” (Bioorg Med Chem Lett, 1995):
# Assays:
# Rattus norvegicus [1] = assay: Inhibitory activity against the pressor response induced by angiotensin II (AII) in conscious rats, at 1 mg/kg p.o. at 7 hr; assay type: functional; settings: route oral
# [2] = molecular target: T1, Type-1 angiotensin II receptor (Bos taurus, UniProt P25104); assay: Displacement of [125 I]-AII (0.2 nM) from bovine adrenal cortical membrane angiotensin II (AII) receptor at 10e-7 M
# T1 sequence (P25104 whole entry): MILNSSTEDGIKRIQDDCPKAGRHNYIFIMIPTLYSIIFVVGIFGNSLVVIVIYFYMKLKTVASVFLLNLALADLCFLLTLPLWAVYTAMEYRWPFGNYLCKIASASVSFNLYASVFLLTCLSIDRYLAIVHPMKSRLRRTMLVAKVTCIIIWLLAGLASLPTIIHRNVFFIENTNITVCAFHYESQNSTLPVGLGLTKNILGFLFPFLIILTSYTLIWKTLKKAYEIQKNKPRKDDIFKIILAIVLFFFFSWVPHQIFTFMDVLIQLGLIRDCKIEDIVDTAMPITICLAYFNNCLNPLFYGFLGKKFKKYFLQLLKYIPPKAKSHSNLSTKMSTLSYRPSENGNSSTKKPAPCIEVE
# Rattus norvegicus [3] = assay: Inhibitory activity against the pressor response induced by Angiotensin II (AII) in conscious rats, at 1 mg/kg p.o. at 3h; assay type: functional; settings: route oral
# Rattus norvegicus [4] = assay: Inhibitory activity against the pressor response induced by Angiotensin II (AII) in conscious rats, at 1 mg/kg p.o. at 7 hr; assay type: functional; settings: route oral
# Rattus norvegicus [5] = assay: Dose-dependent reduction of blood pressure in spontaneously hypertensive rats administered orally (antihypertensive effect); assay type: functional; settings: po
# Rattus norvegicus [6] = assay: Tested for dose-dependent inhibition of Angiotensin II (AII)-induced pressor response at more than 0.01 mg/kg, p.o.; assay type: functional; settings: route oral, read-out: ID50 (the source's name)
# [7] = Partition coefficient (logP); assay type: physicochemical; settings: octanol/water
# [8] = Percent oral bioavailability examined in rats; assay type: ADME, organism-based; settings: rat, in vivo
# Rattus norvegicus [9] = species: Rattus norvegicus; assay: pD2 value of compound was determined; assay type: functional
# Rattus norvegicus [10] = assay: Inhibitory activity against the pressor response induced by angiotensin II (AII) in conscious rats, at 1 mg/kg p.o. at 3h; assay type: functional; settings: route oral
smiles,measurement,setting,value
CCc1nc2cccc(C(=O)O)c2n1Cc1ccc(-c2ccccc2-c2noc(O)n2)cc1,inhibition in vivo at 1 mg/kg,Rattus norvegicus [1],67%
same,IC50,[2],0.31 µM
same,inhibition in vivo at 1 mg/kg,Rattus norvegicus [3],88%
CNc1nc2cccc(C(=O)O)c2n1Cc1ccc(-c2ccccc2-c2noc(O)n2)cc1,IC50,[2],0.26 µM
same,inhibition in vivo at 1 mg/kg,Rattus norvegicus [3],14%
same,inhibition in vivo at 1 mg/kg,Rattus norvegicus [4],13%
CCNc1nc2cccc(C(=O)O)c2n1Cc1ccc(-c2ccccc2-c2noc(O)n2)cc1,IC50,[2],0.042 µM
same,inhibition in vivo at 1 mg/kg,Rattus norvegicus [3],25%
same,inhibition in vivo at 1 mg/kg,Rattus norvegicus [4],6%
CCCOc1nc2cccc(C(=O)O)c2n1Cc1ccc(-c2ccccc2-c2noc(O)n2)cc1,IC50,[2],0.79 µM
same,inhibition in vivo at 1 mg/kg,Rattus norvegicus [3],100%
same,inhibition in vivo at 1 mg/kg,Rattus norvegicus [4],100%
CCSc1nc2cccc(C(=O)O)c2n1Cc1ccc(-c2ccccc2-c2noc(O)n2)cc1,IC50,[2],0.48 µM
same,inhibition in vivo at 1 mg/kg,Rattus norvegicus [3],83%
same,inhibition in vivo at 1 mg/kg,Rattus norvegicus [4],100%
CCCCc1nc2cccc(C(=O)O)c2n1Cc1ccc(-c2ccccc2-c2noc(O)n2)cc1,IC50,[2],0.62 µM
same,inhibition in vivo at 1 mg/kg,Rattus norvegicus [3],68%
same,inhibition in vivo at 1 mg/kg,Rattus norvegicus [4],64%
CCCSc1nc2cccc(C(=O)O)c2n1Cc1ccc(-c2ccccc2-c2noc(O)n2)cc1,IC50,[2],0.85 µM
same,inhibition in vivo at 1 mg/kg,Rattus norvegicus [3],80%
same,inhibition in vivo at 1 mg/kg,Rattus norvegicus [4],100%
CSc1nc2cccc(C(=O)O)c2n1Cc1ccc(-c2ccccc2-c2noc(O)n2)cc1,IC50,[2],0.39 µM
same,inhibition in vivo at 1 mg/kg,Rattus norvegicus [3],100%
same,inhibition in vivo at 1 mg/kg,Rattus norvegicus [4],100%
COc1nc2cccc(C(=O)O)c2n1Cc1ccc(-c2ccccc2-c2noc(O)n2)cc1,IC50,[2],0.36 µM
same,inhibition in vivo at 1 mg/kg,Rattus norvegicus [3],90%
same,inhibition in vivo at 1 mg/kg,Rattus norvegicus [4],88%
CCCc1nc2cccc(C(=O)O)c2n1Cc1ccc(-c2ccccc2-c2noc(O)n2)cc1,IC50,[2],0.42 µM
same,inhibition in vivo at 1 mg/kg,Rattus norvegicus [3],100%
same,inhibition in vivo at 1 mg/kg,Rattus norvegicus [4],88%
CCOc1nc2cccc(C(=O)O)c2n1Cc1ccc(-c2ccccc2-c2noc(=O)[nH]2)cc1 [AZILSARTAN],ED25,Rattus norvegicus [5],0.4 mg/kg
same,ED50,Rattus norvegicus [6],0.06 mg/kg
same,IC50,[2],0.42 µM
same,inhibition in vivo at 1 mg/kg,Rattus norvegicus [3],100%
same,logP,[7],0.9
same,inhibition in vivo at 1 mg/kg,Rattus norvegicus [4],100%
same,bioavailability,[8],20%
same,pD2,Rattus norvegicus [9],9.93
CCOc1nc2cccc(C(=O)OC(C)OC(=O)OC3CCCCC3)c2n1Cc1ccc(-c2ccccc2-c2nn[nH]n2)cc1 (stereo not given) [CANDESARTAN CILEXETIL],ED25,Rattus norvegicus [5],0.68 mg/kg
CCOc1nc2cccc(C(=O)O)c2n1Cc1ccc(-c2ccccc2-c2nnn[nH]2)cc1 [CANDESARTAN],inhibition in vivo at 1 mg/kg,Rattus norvegicus [1],92%
same,inhibition in vivo at 1 mg/kg,Rattus norvegicus [10],100%
same,logP,[7],0.32
same,pD2,Rattus norvegicus [9],9.97
CCCCc1nc(Cl)c(CO)n1Cc1ccc(-c2ccccc2-c2nnn[nH]2)cc1 [LOSARTAN],inhibition in vivo at 1 mg/kg,Rattus norvegicus [1],34%
same,inhibition in vivo at 1 mg/kg,Rattus norvegicus [10],21%
